Assay results taken from publication PMC5513037, “Examining the influence of specificity ligands and ATP-competitive ligands on the overall effectiveness of bivalent kinase inhibitors” (Proteome Science, 2017).

Columns and labels:
Experiment in all cases: KAM-matrix competition in K562 lysate;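 on 0.001 uM KAM: median log10 fold change of treatment over DMSO control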;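 on 0.01 uM KAM: median log10 fold change of treatment over DMSO control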;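 on 0.1 uM KAM: median log10 fold change of treatment over DMSO control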;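 on 1 uM KAM: median log10 fold change of treatment over DMSO control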;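 on 10 uM KAM: median log10 fold change of treatment over DMSO control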
Format in all cases: binding
CDK10 = molecular target: T1, CDK10 (Homo sapiens, UniProt Q15131)
T1 construct: endogenous in cells; host or cells: K562
Procedure: (§1) Supplement 12953_2017_125_MOESM1_ESM.zip/MS_Supp Info.xlsx, sheet "KAM" | column: 10 uM KAM; 1 uM KAM; 0.1 uM KAM; 0.01 uM KAM; 0.001 uM KAM; RB50

BLVRA = molecular target: T2, BLVRA (Homo sapiens, UniProt P53004);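 on 0.001 uM KAM: median log10 fold change of treatment over DMSO control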;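 on 0.01 uM KAM: median log10 fold change of treatment over DMSO control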;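 on 0.1 uM KAM: median log10 fold change of treatment over DMSO control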;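 on 1 uM KAM: median log10 fold change of treatment over DMSO control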;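 on 10 uM KAM: median log10 fold change of treatment over DMSO control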
T2 construct: endogenous in cells; host or cells: K562
T2 sequence (P53004 3-296): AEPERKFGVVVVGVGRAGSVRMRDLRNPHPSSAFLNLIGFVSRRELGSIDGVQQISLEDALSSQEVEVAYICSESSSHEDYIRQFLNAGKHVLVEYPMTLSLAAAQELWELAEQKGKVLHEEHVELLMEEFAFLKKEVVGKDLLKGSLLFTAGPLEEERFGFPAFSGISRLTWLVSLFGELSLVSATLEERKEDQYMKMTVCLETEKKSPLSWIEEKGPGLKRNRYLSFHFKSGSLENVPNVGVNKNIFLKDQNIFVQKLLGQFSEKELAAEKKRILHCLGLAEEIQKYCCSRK
Procedure: as §1

BAZ1B = molecular target: T3, BAZ1B (Homo sapiens, UniProt Q9UIG0);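 on 0.001 uM KAM: median log10 fold change of treatment over DMSO control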;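 on 0.01 uM KAM: median log10 fold change of treatment over DMSO control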;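 on 0.1 uM KAM: median log10 fold change of treatment over DMSO control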;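 on 1 uM KAM: median log10 fold change of treatment over DMSO control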;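 on 10 uM KAM: median log10 fold change of treatment over DMSO control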
T3 construct: endogenous in cells; host or cells: K562
T3 sequence (Q9UIG0 1-1483): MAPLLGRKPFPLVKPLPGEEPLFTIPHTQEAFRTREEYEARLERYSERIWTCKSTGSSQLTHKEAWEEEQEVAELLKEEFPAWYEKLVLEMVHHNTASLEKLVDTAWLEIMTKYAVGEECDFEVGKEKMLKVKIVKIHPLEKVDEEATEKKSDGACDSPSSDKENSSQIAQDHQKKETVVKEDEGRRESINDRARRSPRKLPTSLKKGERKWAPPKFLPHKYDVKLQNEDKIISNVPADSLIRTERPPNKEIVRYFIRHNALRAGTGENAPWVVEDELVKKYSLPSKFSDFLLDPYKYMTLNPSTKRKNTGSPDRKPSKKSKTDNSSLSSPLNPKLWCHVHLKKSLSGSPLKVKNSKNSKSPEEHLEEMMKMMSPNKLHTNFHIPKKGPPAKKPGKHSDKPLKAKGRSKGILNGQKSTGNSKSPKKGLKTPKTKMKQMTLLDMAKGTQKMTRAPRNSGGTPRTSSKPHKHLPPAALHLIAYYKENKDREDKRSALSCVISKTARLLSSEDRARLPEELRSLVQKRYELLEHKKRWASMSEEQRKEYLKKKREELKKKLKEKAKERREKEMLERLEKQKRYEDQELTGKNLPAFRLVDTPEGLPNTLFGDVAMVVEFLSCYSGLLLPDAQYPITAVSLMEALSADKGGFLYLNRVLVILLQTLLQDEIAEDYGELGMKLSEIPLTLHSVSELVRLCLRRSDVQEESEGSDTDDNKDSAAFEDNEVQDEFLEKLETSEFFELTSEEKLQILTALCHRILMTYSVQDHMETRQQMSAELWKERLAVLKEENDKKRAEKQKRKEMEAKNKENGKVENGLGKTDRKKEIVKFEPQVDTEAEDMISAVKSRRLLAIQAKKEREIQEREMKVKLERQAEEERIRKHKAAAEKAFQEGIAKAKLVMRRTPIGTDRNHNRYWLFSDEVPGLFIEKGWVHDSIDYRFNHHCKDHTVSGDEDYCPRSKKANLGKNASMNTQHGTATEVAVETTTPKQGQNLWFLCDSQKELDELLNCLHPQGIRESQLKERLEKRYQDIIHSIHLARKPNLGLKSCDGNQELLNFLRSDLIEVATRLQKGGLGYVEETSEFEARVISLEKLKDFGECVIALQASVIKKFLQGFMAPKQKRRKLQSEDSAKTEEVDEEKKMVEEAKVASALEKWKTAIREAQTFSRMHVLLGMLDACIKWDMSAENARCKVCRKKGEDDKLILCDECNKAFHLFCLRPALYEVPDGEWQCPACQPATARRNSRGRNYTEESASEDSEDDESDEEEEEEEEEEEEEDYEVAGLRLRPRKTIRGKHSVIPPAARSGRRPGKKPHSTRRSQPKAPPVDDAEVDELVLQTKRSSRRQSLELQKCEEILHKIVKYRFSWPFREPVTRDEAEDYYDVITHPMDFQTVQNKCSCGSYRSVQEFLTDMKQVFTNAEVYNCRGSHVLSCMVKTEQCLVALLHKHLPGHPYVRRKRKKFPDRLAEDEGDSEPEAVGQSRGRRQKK
Procedure: as §1

MAP3K3 = molecular target: T4, MAP3K3 (Homo sapiens, UniProt Q99759)
T4 construct: endogenous in cells; host or cells: K562 cell lysate
T4 sequence (Q99759 1-626): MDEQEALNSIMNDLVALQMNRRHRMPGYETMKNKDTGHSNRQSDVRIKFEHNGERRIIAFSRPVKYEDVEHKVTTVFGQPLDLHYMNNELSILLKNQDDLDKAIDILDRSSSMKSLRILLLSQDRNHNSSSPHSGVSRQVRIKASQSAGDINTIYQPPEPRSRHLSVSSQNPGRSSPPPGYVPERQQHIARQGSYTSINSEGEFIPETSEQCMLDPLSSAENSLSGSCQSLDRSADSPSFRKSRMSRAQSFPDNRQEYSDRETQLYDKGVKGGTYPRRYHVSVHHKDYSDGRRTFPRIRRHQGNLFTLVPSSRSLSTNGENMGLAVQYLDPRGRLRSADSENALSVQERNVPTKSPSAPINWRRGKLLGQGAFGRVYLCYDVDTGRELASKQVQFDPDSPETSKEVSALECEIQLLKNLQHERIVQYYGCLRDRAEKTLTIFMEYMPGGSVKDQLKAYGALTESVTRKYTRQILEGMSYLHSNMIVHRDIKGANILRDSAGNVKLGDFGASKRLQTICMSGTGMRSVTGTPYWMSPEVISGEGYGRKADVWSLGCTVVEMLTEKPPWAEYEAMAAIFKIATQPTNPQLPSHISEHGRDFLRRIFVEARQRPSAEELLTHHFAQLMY
Procedure: as §1

[1] = read-out: RB50 (the source's name)
[2] = KAM 0.001-10 uM, read-out: RB50 (the source's name)

T1 sequence (Q15131 whole entry): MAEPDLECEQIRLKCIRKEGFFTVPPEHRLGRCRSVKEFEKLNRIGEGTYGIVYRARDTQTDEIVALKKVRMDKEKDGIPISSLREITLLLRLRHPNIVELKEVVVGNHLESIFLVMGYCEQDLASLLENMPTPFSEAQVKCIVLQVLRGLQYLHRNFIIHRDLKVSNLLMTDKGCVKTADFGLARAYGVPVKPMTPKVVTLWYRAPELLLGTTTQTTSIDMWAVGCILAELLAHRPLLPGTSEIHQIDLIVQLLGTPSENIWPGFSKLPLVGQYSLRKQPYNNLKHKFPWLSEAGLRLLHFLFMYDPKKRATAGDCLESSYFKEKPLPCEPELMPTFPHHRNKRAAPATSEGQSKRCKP

In the case of `N#CCc1ccc(Nc2nc(NCCCN)cc(Nc3cc(C4CC4)[nH]n3)n2)cc1` [KAM], the “median Log10 fold change” value (CDK10; 0.001 uM KAM) is reported as 0.01311, the “median Log10 fold change” value (CDK10; 0.01 uM KAM) is reported as -0.05132 and the “median Log10 fold change” value (CDK10; 0.1 uM KAM) is reported as -0.3516. The “median Log10 fold change” value (CDK10; 1 uM KAM) was -0.4253, the “median Log10 fold change” value (CDK10; 10 uM KAM) was -0.3533 and the IC50 (CDK10; [1]) was 130 nM. For the same compound, the IC50 (BLVRA; [2]) was > 10000 nM, the “0.001 uM KAM” value (BLVRA; relative to 0 uM KAM = 0) was 0.01315 and the “0.01 uM KAM” value (BLVRA; relative to 0 uM KAM = 0) was 0.09211. The “0.1 uM KAM” value (BLVRA; relative to 0 uM KAM = 0) was 0.1192, the “1 uM KAM” value (BLVRA; relative to 0 uM KAM = 0) was 0.1811 and the “10 uM KAM” value (BLVRA; relative to 0 uM KAM = 0) was 0.1365. The IC50 (BAZ1B; [2]) was > 10000 nM, the “0.001 uM KAM” value (BAZ1B; relative to 0 uM KAM = 0) was -0.04632 and the “0.01 uM KAM” value (BAZ1B; relative to 0 uM KAM = 0) was -0.04267. For the same compound, the “0.1 uM KAM” value (BAZ1B; relative to 0 uM KAM = 0) was -0.03143, the “1 uM KAM” value (BAZ1B; relative to 0 uM KAM = 0) was -0.000154 and the “10 uM KAM” value (BAZ1B; relative to 0 uM KAM = 0) was -0.05532. The “median Log10 fold change” value (MAP3K3; 0.001 uM KAM) was -0.04647, the “median Log10 fold change” value (MAP3K3; 0.01 uM KAM) was 0.002946 and the “median Log10 fold change” value (MAP3K3; 0.1 uM KAM) was -0.1524. The “median Log10 fold change” value (MAP3K3; 1 uM KAM) was -0.3206, the “median Log10 fold change” value (MAP3K3; 10 uM KAM) was -0.4381 and the IC50 (MAP3K3; [1]) was 1000 nM.
